Results: patent US20240034785A1, “RXR-ALPHA BINDERS AND RXR-ALPHA/PLK1 MODULATORS” (NUCMITO PHARMACEUTICALS CO. LTD., priority 2020, published 2024)

Key:
[1] = biological target: T1, RXRα heterodimerization with RARγ (Homo sapiens, UniProt P19793); experiment: Co-immunoprecipitation of Myc-RXRα with FLAG-RARγ in HeLa cells; type: cell-based; conditions: 10 μM for 3 hr (FIG. 55)
T1 construct: expressed in transfected cells; host or cells: HeLa
T1 sequence (P19793 1-462): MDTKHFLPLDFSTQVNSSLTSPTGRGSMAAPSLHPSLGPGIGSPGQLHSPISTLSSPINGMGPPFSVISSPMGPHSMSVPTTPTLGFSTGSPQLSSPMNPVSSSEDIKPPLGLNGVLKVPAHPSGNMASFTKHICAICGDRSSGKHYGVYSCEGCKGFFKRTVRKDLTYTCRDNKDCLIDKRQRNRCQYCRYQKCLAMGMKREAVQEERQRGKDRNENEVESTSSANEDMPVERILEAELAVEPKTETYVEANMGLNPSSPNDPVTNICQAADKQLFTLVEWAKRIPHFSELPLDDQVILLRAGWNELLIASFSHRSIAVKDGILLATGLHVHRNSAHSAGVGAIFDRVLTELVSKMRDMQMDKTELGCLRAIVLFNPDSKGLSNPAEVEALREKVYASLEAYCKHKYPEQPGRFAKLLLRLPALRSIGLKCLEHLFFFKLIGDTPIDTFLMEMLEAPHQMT
T1 sequence (P13631 1-454 partner): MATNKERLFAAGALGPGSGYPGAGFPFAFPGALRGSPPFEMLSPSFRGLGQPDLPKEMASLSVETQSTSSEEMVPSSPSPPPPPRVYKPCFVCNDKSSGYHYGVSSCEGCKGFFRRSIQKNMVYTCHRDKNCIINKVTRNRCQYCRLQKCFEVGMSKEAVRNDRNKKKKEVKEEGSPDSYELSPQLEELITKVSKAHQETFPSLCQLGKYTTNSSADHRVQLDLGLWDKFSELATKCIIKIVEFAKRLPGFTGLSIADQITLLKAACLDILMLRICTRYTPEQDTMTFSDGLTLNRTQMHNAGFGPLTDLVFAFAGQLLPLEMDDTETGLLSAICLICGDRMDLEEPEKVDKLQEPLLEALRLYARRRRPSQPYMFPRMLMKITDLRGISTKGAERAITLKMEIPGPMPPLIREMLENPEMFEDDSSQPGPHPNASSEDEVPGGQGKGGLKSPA

cancer cells = experiment: Mitotic progression of cancer cells (FACS analysis); type: cell-based; design: inhibitory effect on mitotic progression: RXRα dependence and other cancer cell lines (FACS): dose or concentration left out as unconfirmed
Method: Cells were harvested by trypsin digestion, washed with PBS, and fixed with ice-cold 70% ethanol overnight at 4° C. The fixed cells were then washed twice in PBS and treated for 10 min at room temperature with 0.5 μg/mL 4-6-diamidino-2-phenylindole (DAPI) in PBS and analyzed on a FACSCAN™ flow cytometer. Flow cytometry data were analyzed using CYTEXPERT.

QSG-7701 cells = experiment: Western blot analysis of QSG-7701 normal liver cells; type: cell-based, human; conditions: 12 hr (FIG. 61)
[2] = test system: HepG2 liver cancer and THLE-2 nontumorous liver cells; experiment: Western blot analysis of HepG2 and THLE-2 cells; type: cell-based, human; conditions: 10 μM for 12 hr (FIG. 68)
HeLa cells = experiment: Asynchronous or thymidine-synchronized HeLa cells incubated with compound A1; type: cell-based, human
Method: Cells were synchronized at GUS boundary by a double thymidine block. Briefly, cells cultured in a medium containing 2 mM thymidine for 16 hr were released into a normal medium for 8 hr, subjected to a second thymidine block for 16 hr, and then released into a fresh medium again. Alternatively, cells were synchronized at prometaphase by a thymidine-nocodazole arrest (an 18-hr thymidine arrest and a 5-hr release, followed by a 5-hr 100 ng/mL nocodazole arrest).

[3] = biological target: T2, p-RXRα and PLK1 at the centrosome (Homo sapiens, UniProt P19793); experiment: In situ proximity ligation assay (PLA) in HepG2 cells; type: cell-based; conditions: RO-3306 10 μM for 30 min or compound A1 10 μM for 2 hr (FIG. 56)
T2 construct: endogenous in cells; host or cells: HepG2
T2 sequence (P19793 1-462): T1 sequence (P19793 1-462)
Method: An in situ proximity ligation assay (PLA) was performed in HeLa cells and HepG2 by using a DOULINK™ assay kit. Briefly, cells mounted on glass slides were fixed with methanol at −20° C. for 5 min, then permeabilized with 0.05% Triton X-100 in a PBS buffer for 8 min at 4° C., and blocked with a blocking solution for 60 min at 37° C., followed by incubation with primary antibodies for 60 min at 37° C. The slides were then washed three times with wash buffer A, and PLA labeled secondary antibodies (anti-mouse, minus; anti-rabbit, plus) were added and incubated for 60 min at 37° C. The slides were washed two times with wash buffer A and a ligation solution including a ligase was added for 30 min at 37° C. After ligation, the slides were washed two times with wash buffer A and followed by incubation with an amplification buffer including a polymerase for 100 min at 37° C. After amplification, the slides were washed two times with 1×wash buffer B and one time in 0.01×wash buffer B. Finally, the slides were mounted using a minimal volume of a mounting medium with DAPI and analyzed in a confocal microscope after 15 min.

[4] = test system: primary human hepatocellular carcinoma cells; experiment: Western blot analysis of primary hepatic carcinoma cells from a liver cancer patient; type: cell-based; conditions: 10 μM for 48 hr (FIG. 63)
Method: Tissue samples were obtained by surgical resection and processed within 2 hr. Chen et al., Oncotarget 2016, 7, 17047-59. Samples were washed with 1×SC-2 solution, minced with fine sterile scissors and scalpel into fragments of ˜1 mm^3. They were then treated with pre-warmed collagenase type IV for 30 min at 37° C. and filtered through a 70 μm cell strainer. The pellet containing the liver cells was resuspended in ice cold SC-2 solution and triple centrifugation at 1,000 g for 10 min at 4° C. was performed in order to separate the purified hepatocyte population (pellet) from non-parenchymal cells (supernatant). The pellet contained the purified hepatocytes. The resolved single-cell suspensions were then re-suspended in a primary cell culture medium (DMEM, 20% FBS, 2 mM glutamine, 1 mM pyruvate, 10 mM HEPES, 100 units/mL penicillin/streptomycin, 0.1 mg/mL gentamicin, and […] fungizone), plated in 6-well plates coated with 5 μg/cm^2 rat tail collagen type I and maintained in culture at 37° C. and 5% CO2.

cancer cell lines = experiment: Western blot analysis of mitotic arrest, apoptosis and SAC activation in cancer cell lines; type: cell-based, human

COc1ccc(CC(=O)N/N=C/c2c(O)ccc3ccccc23)cc1 [Compound A1, (E)-N′-((2-hydroxynaphthalen-1-yl)methylene)-2-(4-methoxyphenyl)acetohydrazide]
RXRα heterodimerization with RARγ (CoIP) [1]: no effect | mitotic progression of cancer cells (cancer cells): inhibited mitotic progression of cancer cells | inhibitory effect on mitotic progression: RXRα dependence and other cancer cell lines (FACS) (cancer cells; indicated cell lines): RXRα dependent and observed in many other cancer cell lines | effect in p-RXRα-negative noncancerous QSG-7701 cells (QSG-7701 cells): but not p-RXRα-negative noncancerous QSG-7701 cells | inducing G2/M arrest, SAC activation, and apoptosis in HepG2 versus THLE-2 cells [2]: differential effects | effectiveness in asynchronous versus synchronized cells (HeLa cells; HeLa cells, 10 μM for 24 hr (FIG. 64)): more effective in asynchronous cells (AS) than in synchronized GUS cells | cell cycle progression and fate of synchronized HeLa cells upon treatment (HeLa cells; synchronized HeLa cells): progressed through S phase normally and arrested in mitotic phase, which was followed by apoptosis | in situ interaction between p-RXRα and PLK1 at the centrosome (PLA) [3]: inhibited the in situ interaction | induction of mitotic arrest and apoptosis [4]: observed | apoptosis of cancer cells (cancer cell lines): induced apoptosis of cancer cells in a dose-dependent and RXRα-dependent manner | activation of the spindle assembly checkpoint (SAC), mobility-shifted BubR1 (cancer cell lines; FIGS. 61, 62 and 68): accompanied with the activation of the spindle assembly checkpoint (SAC) | nuclear morphology (mitotic catastrophe) (cancer cell lines; cancer cells treated with compound A1): exhibited multi-lobular, giant nuclear and/or highly fragmented/bursted nuclei | induction of mitotic arrest and apoptosis (cancer cell lines; various cancer cell lines (HepG2, Bel-7402, SK-Hep-1), 12 hr (FIGS. 61 and 62)): observed
